Data taken from ChEMBL document CHEMBL1137358, “Synthetic inhibitors of cytochrome P-450 2A6: inhibitory activity, difference spectra, mechanism of inhibition, and protein cocrystallization” (J Med Chem, 2006).

Key:
CYP2A6 over CYP2E1 = experiment: Selectivity for CYP2A6 over CYP2E1; conditions: human
CYP2A6 over CYP2C19 = experiment: Selectivity for CYP2A6 over CYP2C19; conditions: human
Cytochrome P450 2D6 = Cytochrome P450 2D6 (Homo sapiens, UniProt P10635); experiment: Inhibition of human CYP2D6
Cytochrome P450 2C9 = Cytochrome P450 2C9 (Homo sapiens, UniProt P11712); experiment: Inhibition of human CYP2C9
Cytochrome P450 2C19 = Cytochrome P450 2C19 (Homo sapiens, UniProt P33261); experiment: Inhibition of human CYP2C19
Cytochrome P450 2E1 = Cytochrome P450 2E1 (Homo sapiens, UniProt P05181); experiment: Inhibition of human CYP2E1
[1] = (§1) Stability in mouse liver microsome
CYP2A6 over CYP2B6 = experiment: Selectivity for CYP2A6 over CYP2B6
Cytochrome P450 2B6 = molecular target: T1, Cytochrome P450 2B6 (Homo sapiens, UniProt P20813); experiment: Inhibition of human CYP2B6
T1 sequence (P20813 whole entry): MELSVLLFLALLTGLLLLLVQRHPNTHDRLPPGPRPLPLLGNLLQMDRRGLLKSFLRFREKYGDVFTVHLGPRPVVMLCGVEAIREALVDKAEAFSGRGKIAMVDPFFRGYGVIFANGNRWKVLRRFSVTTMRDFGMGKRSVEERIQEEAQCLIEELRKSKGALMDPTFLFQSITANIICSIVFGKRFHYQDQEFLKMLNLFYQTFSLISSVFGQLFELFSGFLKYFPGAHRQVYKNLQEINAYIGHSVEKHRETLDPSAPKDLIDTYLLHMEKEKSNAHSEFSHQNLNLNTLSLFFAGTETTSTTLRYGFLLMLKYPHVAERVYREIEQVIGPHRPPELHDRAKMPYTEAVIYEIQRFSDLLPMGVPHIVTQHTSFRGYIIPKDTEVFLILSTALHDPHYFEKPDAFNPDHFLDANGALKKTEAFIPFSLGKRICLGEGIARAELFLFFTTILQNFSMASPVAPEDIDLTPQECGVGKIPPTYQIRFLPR

CYP2A6 over CYP3A4 = experiment: Selectivity for CYP2A6 over CYP3A4; conditions: human
Cytochrome P450 3A4 = Cytochrome P450 3A4 (Homo sapiens, UniProt P08684); experiment: Inhibition of human CYP3A4
CYP2A6 over CYP2C9 = experiment: Selectivity for CYP2A6 over CYP2C9; conditions: human
CYP2A6 over CYP2D6 = experiment: Selectivity for CYP2A6 over CYP2D6; conditions: human
Cytochrome P450 2A6 = molecular target: T2, Cytochrome P450 2A6 (Homo sapiens, UniProt P11509); experiment: Inhibition of human CYP2A6
T2 sequence (P11509 whole entry): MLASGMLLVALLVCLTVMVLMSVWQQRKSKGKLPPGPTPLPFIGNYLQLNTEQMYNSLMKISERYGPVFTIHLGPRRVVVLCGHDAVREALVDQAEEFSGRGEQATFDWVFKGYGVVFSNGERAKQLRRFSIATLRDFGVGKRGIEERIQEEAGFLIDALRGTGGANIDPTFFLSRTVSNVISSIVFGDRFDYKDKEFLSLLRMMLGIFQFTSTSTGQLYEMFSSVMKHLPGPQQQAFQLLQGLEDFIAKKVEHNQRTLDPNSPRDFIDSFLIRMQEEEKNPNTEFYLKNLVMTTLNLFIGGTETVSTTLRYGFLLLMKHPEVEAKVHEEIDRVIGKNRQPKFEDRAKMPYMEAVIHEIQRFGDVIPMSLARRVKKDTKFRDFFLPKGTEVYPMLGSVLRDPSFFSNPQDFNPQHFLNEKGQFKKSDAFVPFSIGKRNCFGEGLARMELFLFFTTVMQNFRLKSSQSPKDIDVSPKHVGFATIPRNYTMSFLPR

[2] = (§2) Stability in human liver microsome
Mus musculus = organism: Mus musculus; experiment: as §1; conditions: microsomes
Liver microsomes = experiment: as §2; conditions: microsomes

Sequence of Cytochrome P450 2D6 (P10635 whole entry): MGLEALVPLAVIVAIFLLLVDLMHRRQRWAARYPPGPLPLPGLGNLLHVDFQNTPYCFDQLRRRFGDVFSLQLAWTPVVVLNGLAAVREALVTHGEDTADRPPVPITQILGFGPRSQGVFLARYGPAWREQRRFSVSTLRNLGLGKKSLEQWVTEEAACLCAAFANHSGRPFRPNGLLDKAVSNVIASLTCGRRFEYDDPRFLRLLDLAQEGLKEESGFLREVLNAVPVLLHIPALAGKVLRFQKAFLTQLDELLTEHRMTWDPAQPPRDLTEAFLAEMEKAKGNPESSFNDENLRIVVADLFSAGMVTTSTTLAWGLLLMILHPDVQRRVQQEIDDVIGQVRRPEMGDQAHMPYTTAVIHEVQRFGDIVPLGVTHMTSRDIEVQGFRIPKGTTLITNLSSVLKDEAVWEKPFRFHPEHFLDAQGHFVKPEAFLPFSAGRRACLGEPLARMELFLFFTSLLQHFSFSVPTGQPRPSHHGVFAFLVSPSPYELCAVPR
Sequence of Cytochrome P450 2C19 (P33261 whole entry): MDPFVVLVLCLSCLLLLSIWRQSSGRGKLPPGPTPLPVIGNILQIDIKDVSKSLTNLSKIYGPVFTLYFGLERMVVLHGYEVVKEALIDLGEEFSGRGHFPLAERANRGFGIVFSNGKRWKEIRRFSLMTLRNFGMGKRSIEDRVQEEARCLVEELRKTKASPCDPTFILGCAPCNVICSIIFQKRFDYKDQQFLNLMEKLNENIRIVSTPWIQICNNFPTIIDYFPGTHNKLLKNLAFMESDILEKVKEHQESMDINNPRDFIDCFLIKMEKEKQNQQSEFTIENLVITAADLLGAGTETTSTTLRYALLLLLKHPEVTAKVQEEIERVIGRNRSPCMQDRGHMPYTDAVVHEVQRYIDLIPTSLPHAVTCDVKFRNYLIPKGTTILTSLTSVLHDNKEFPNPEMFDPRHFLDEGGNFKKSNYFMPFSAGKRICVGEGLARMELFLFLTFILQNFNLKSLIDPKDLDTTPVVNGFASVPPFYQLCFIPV
Sequence of Cytochrome P450 2C9 (P11712 whole entry): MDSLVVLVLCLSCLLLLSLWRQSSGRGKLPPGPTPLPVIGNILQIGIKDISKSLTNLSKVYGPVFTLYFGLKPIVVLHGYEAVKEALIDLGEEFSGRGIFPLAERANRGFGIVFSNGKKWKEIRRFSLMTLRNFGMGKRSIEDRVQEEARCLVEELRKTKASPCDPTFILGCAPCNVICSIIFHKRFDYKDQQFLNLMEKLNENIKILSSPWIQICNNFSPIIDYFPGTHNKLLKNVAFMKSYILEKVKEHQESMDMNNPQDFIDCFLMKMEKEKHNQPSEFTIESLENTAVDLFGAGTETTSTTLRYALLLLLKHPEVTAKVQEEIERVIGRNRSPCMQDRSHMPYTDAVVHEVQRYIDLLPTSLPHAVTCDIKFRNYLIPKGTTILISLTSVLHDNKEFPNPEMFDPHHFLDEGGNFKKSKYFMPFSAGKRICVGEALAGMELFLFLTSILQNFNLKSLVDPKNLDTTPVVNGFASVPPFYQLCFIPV
Sequence of Cytochrome P450 2E1 (P05181 whole entry): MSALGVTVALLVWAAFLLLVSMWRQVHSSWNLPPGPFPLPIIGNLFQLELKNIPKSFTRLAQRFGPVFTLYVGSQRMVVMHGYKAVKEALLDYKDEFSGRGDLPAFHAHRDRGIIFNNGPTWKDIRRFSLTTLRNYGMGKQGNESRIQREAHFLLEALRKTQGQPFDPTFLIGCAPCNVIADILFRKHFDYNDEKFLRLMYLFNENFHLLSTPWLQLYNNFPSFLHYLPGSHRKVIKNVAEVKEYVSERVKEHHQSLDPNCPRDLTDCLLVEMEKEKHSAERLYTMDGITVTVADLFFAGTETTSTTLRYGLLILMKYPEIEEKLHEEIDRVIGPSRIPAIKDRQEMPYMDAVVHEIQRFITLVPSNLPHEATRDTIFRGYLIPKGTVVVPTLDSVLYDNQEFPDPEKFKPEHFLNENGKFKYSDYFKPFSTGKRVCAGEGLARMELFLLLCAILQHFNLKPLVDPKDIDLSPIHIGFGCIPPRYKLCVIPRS
Sequence of Cytochrome P450 3A4 (P08684 whole entry): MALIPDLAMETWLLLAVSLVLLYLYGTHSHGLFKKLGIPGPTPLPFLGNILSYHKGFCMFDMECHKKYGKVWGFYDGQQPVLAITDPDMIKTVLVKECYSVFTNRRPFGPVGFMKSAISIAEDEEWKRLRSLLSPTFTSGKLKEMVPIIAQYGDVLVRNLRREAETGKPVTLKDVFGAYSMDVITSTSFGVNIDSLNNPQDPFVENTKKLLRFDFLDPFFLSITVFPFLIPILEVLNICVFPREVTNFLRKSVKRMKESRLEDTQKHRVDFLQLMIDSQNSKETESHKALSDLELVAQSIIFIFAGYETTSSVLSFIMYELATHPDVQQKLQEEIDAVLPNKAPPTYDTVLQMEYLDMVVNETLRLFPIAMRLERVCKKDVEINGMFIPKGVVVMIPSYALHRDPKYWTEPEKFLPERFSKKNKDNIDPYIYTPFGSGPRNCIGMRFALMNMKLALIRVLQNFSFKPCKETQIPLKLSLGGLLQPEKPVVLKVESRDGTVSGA

SMILES	selectivity ratio (CYP2A6 over CYP2E1)	selectivity ratio (CYP2A6 over CYP2C19)	Ki (Cytochrome P450 2D6)	Ki (Cytochrome P450 2C9)	Ki (Cytochrome P450 2C19)	Ki (Cytochrome P450 2E1)	half-life ([1]; liver microsomes)	selectivity ratio (CYP2A6 over CYP2B6)	Ki (Cytochrome P450 2B6)	selectivity ratio (CYP2A6 over CYP3A4)	Ki (Cytochrome P450 3A4)	selectivity ratio (CYP2A6 over CYP2C9)	selectivity ratio (CYP2A6 over CYP2D6)	Ki (Cytochrome P450 2A6)	half-life ([2]; liver microsomes)	Stability (Mus musculus)	T1/2 (Liver microsomes)	half-life ([1]; microsomes)	half-life ([2]; microsomes)
CNCC#Cc1cccnc1	43.1	6.1	> 400 µM	6.3 µM	16.4 µM	117 µM	123 min	22.2	60 µM	92.8	251 µM	2.3	> 74	2700 nM	136 min				
NCc1ccc(-c2cccnc2)o1		81	5.7 µM	5.9 µM	11 µM	86 µM	37 min		95.5 µM		23.6 µM	43	42		37 min				
c1cncc(-c2c[nH]cn2)c1	17	35	100 µM	20.9 µM	26.8 µM	12.8 µM	698 min	69	51.5 µM	93	70 µM	28	133	800 nM	701 min				
CNCc1ccc(-c2cccnc2)o1	> 250	19	45.3 µM	38.1 µM	15.3 µM	> 400 µM			179 µM	> 250	> 400 µM	48	57	800 nM	66 min	Stable			
Cc1ccsc1-c1ccc(F)nc1	285	32	> 400 µM	> 400 µM	21 µM	184 µM		9.1	5.9 µM	5.9	19.6 µM	> 310	> 310	600 nM	84 min	Stable			
Cc1ccsc1-c1cccnc1							41 min								32 min				
Cc1cscc1-c1cccnc1			96.5 µM	61.5 µM	12.5 µM	3.1 µM	47 min		3.1 µM		< 25 µM			900 nM			32 min		
NCc1ccc(-c2ccccc2)o1	1.3	6.8	14.8 µM	0.9 µM	41 µM	0.8 µM		6.4	3.8 µM	105	63 µM	1.5	24.6	600 nM				22 min	37 min
CSCc1ccc(-c2cccnc2)o1	0.9	8.8	64.5 µM	14.1 µM	7 µM	0.8 µM		59	46.9 µM	9.2	7.4 µM	18	81	800 nM				38 min	59 min
NCc1ccc(-c2ccccc2)s1	0.1	1.4	> 400 µM	0.5 µM	0.9 µM	0.04 µM		1.1	0.6 µM	159	95.5 µM	0.8	> 333	600 nM				41 min	84 min
Cc1cscc1-c1ccccc1	2.9	32.3	> 400 µM	> 400 µM	> 400 µM	> 400 µM		4.2	5.1 µM	> 400	> 400 µM	33.9	60.6	6200 nM				37 min	74 min
